Source: ChEMBL document CHEMBL1770059, “Identification of chemicals to inhibit the kinase activity of leucine-rich repeat kinase 2 (LRRK2), a Parkinson's disease-associated protein” (Bioorg Med Chem Lett, 2011)
pIC50: −log10 of the molar value. Values belong to the compound of their own block, whether it stands above or below them. Active and inactive are the calls of the source. The calls are words filed in the database; no cut-off is given here.

What was measured:
[1] = test system: Leucine-rich repeat serine/threonine-protein kinase 2 (Homo sapiens), Q5S007 [G2019S]; test: Inhibition of purified N-terminal GST-tagged LRRK2 G2019S mutant autophosphorylation activity using myelin basic protein as substrate at 25 uM
[2] = target: Leucine-rich repeat serine/threonine-protein kinase 2 (Homo sapiens, UniProt Q5S007, G2019S); test: Inhibition of purified N-terminal GST-tagged LRRK2 G2019S mutant autophosphorylation activity using [gamma32-P]ATP
[3] = target: Dual specificity tyrosine-phosphorylation-regulated kinase 1A (Homo sapiens) (UniProt Q13627); test: Inhibition of DYRK1A expressed in bacteria using [gamma32-P]ATP at 25 uM
[4] = test system: Leucine-rich repeat serine/threonine-protein kinase 2 (Homo sapiens), Q5S007 [G2019S]; test: Inhibition of LRRK2 G2019S mutant expressed in mouse SN4741 cells assessed as reduction in hydrogen peroxide-induced neurotoxicity at 10 uM by measuring cell survival after 48 hrs by crystal violet assay relative to control; type: cell-based
[5] = target: Leucine-rich repeat serine/threonine-protein kinase 2 (Homo sapiens) (UniProt Q5S007); test: Inhibition of wild type LRRK2 expressed in mouse SN4741 cells assessed as reduction in hydrogen peroxide-induced neurotoxicity at 10 uM by measuring cell survival after 48 hrs by crystal violet assay relative to control; type: cell-based
[6] = Neurotoxicity in rat primary cortical neurons assessed as cell survival at 10 uM after 24 hrs by MTT assay; type: toxicity, cell-based, Cerebral cortex neuron; details: read-out: Activity
[7] = Neurotoxicity in rat primary cortical neurons assessed as cell survival at 100 uM after 24 hrs by MTT assay; type: toxicity, cell-based; details: cerebral cortex neuron

Leucine-rich repeat serine/threonine-protein kinase 2 (Homo sapiens), Q5S007 [G2019S], sequence (Q5S007 whole entry G2019S): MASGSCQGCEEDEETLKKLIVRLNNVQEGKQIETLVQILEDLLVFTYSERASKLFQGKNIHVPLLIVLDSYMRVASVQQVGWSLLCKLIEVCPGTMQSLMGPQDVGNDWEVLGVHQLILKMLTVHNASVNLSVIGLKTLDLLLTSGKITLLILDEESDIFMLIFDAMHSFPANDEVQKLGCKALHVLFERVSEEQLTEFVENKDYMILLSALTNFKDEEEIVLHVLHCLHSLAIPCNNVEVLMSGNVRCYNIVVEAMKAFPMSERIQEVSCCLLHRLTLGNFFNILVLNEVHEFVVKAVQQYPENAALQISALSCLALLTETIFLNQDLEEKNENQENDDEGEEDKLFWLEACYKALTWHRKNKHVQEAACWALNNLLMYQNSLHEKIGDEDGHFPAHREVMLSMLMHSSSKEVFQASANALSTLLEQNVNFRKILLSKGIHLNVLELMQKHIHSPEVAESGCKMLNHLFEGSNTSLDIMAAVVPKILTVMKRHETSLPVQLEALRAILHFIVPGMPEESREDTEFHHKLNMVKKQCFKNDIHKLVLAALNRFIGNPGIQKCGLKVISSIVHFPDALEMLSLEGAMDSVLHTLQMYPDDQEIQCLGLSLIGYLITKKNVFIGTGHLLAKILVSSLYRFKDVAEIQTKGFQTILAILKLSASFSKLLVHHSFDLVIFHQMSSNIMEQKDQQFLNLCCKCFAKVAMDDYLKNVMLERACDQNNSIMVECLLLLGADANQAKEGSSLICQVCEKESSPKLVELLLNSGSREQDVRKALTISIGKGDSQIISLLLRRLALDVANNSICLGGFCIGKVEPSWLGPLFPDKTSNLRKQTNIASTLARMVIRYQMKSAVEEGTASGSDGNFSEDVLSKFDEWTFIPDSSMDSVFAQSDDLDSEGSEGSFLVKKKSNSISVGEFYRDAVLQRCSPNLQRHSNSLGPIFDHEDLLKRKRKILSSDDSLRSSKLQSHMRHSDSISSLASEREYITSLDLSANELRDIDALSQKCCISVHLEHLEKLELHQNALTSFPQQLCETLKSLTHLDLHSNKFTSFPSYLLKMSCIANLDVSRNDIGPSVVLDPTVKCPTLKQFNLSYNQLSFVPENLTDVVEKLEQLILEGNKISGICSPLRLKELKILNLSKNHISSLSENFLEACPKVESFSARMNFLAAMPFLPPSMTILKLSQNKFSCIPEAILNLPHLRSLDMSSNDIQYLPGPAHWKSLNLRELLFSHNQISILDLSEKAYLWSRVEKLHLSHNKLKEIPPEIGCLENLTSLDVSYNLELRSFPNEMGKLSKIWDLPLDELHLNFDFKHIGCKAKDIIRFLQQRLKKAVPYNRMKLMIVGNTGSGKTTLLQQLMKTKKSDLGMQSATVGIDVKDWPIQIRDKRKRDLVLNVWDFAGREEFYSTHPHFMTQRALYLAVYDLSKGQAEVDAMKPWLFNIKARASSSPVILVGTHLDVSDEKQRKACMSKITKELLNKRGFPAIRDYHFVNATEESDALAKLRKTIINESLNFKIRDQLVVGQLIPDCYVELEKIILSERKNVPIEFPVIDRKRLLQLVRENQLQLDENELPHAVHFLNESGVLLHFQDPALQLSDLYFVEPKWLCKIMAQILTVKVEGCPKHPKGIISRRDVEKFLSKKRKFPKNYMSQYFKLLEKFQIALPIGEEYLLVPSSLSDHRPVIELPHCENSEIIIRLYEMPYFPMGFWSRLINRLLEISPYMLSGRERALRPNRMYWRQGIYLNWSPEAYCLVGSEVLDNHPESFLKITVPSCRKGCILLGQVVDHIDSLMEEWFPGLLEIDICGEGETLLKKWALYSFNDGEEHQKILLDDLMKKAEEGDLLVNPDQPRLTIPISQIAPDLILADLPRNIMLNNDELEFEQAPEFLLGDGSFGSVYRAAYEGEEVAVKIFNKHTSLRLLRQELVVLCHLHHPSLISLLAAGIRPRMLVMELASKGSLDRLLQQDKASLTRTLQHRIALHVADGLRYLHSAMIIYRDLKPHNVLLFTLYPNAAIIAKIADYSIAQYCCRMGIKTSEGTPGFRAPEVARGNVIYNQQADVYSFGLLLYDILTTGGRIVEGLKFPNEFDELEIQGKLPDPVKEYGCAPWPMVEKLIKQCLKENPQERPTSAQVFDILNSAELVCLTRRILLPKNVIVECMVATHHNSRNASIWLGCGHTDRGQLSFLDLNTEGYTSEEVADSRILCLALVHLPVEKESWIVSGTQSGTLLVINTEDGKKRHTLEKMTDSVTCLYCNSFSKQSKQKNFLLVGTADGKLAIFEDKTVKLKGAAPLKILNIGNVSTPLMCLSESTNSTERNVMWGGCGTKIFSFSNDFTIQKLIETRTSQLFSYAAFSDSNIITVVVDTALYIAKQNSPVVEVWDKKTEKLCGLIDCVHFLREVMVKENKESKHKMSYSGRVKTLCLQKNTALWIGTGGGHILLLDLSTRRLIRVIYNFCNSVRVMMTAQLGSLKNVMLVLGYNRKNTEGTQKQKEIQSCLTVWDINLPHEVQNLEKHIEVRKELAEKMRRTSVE
Leucine-rich repeat serine/threonine-protein kinase 2, sequence (Q5S007 whole entry G2019S): as above
Leucine-rich repeat serine/threonine-protein kinase 2 (Homo sapiens), sequence (Q5S007 whole entry): as the sequence (Q5S007 whole entry G2019S) above, with S2019G counted along it

inhibition [1]: Active
Structure (SMILES): Oc1ccc(/C=N/Nc2ccc3ccccc3n2)c(O)c1

inhibition [1]: Active
Structure (SMILES): COc1ccc(/C=N/Nc2ccc3ccccc3n2)cc1

inhibition [1]: Active
Structure (SMILES): COc1cc(/C=N/Nc2nc3cc(C)ccc3cc2C)ccc1O

inhibition [1]: Active
Structure (SMILES): Cc1ccc2cc(C)c(N/N=C/c3ccc(O)cc3)nc2c1

pIC50 [2]: 4.88
inhibition [3]: inactive
inhibition [1]: Active
Structure (SMILES): Cc1cc(N/N=C/c2ccc(O)c(O)c2)nc2ccccc12
Activity [4]: 50%
Activity [5]: 50%
viability at 24 h, 10 µM [6]: 85%
Activity [7]: Toxic
